In this test the target is Human KLKB1 (Homo sapiens (Human), UniProt P03952). The test can be described thus: KLKB1 kallikrein activity inhibition assay (chromogenic substrate S-2302). It is filed as biochemical. Conditions: Table C. How it is done: The KLKB1 kallikrein activity reported herein (e.g., Tables B, C, and D) was obtained as follows. Human KLKB1 protein was obtained from Enzyme Research Labs. […] KLKB1 was assayed in buffer containing 0.05 M Tris (pH 7.4), 0.01 M NaCl and 0.2% w/v PEG-8000. The final concentration of enzyme used was 3 nM KLKB1. […] All assays were performed in 96-well microtiter plates at room temperature (RT). […] Inhibitor IC50 values were determined by adding test compound as ten point, three-fold serial dilutions in buffer solution, as known in the art. The plate was read at 10 minutes after substrate addition. The IC50 was calculated by plotting the percent (%) inhibition against compound concentration and fitting the data to a constrained four parameter sigmoidal curve, as known in the art.
Chain of Human KLKB1 (P03952 391-638 limits assumed): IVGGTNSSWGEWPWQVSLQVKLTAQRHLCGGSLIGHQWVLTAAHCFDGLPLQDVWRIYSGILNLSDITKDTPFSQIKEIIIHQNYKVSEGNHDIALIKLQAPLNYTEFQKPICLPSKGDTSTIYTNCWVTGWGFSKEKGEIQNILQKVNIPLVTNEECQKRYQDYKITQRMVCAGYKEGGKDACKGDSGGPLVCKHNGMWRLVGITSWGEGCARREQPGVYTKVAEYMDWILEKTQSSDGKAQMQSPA
Chain of Human KLKB1 (P03952 20-390 partner limits assumed): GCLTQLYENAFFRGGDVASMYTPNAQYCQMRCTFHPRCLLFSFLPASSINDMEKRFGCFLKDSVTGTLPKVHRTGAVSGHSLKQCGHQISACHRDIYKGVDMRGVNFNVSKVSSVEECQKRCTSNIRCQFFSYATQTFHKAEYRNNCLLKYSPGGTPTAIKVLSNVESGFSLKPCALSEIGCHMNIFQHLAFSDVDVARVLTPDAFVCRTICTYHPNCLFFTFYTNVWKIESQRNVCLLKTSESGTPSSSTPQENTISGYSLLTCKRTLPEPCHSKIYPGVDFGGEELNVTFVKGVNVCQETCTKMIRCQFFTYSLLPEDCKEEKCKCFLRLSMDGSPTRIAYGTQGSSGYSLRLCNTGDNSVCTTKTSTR
`COc1ccc(CNc2nc(-c3cccnc3)nn2C(=O)Cc2ccccc2)cc1` [Cmpd 327] had a half-inhibitory concentration (IC50) of 10 to 100 µM.

Regarding `COc1ccc(CNc2nc(-c3cccnc3)nn2C(=O)CC(C)C)cc1` [Cmpd 328], the IC50 is greater than 100 µM.

`COc1ccc(CNc2nc(-c3cccnc3)nn2C(=O)CCc2ccccc2)cc1` [Cmpd 329] gave an IC50 greater than 100 µM.

Consider `CCCC(=O)n1nc(-c2cccnc2)nc1NCc1ccc(OC)cc1` [Cmpd 330], for which the half-maximal inhibitory concentration (IC50) was 10 to 100 µM.

With `CC(C)(C)C(=O)n1nc(C2CCCO2)nc1NCc1ccc(Cl)s1` (centres unmarked) [Cmpd 331], the 50% inhibitory concentration (IC50) lay in the range of 1 to 10 µM.

For `COc1ccccc1C(=O)n1nc(-c2ccccc2)nc1NCc1nccs1` [Cmpd 333], the IC50 is greater than 100 µM.

`COc1ccccc1C(=O)n1nc(-c2ccccc2)nc1NCc1ccsc1` [Cmpd 335] yielded an IC50 of 10 to 100 µM.

The molecule `COc1ccc(CNc2nc(-c3ccccn3)nn2C(=O)c2ccco2)cc1` [Cmpd 336] yielded a 50% inhibitory concentration (IC50) of 1 to 10 µM.

The molecule `COc1ccc(CNc2nc(-c3ccncc3)nn2C(=O)c2ccco2)cc1` [Cmpd 337] showed an IC50 greater than 100 µM.

The molecule `COc1ccc(CNc2nc(-c3ccccn3)nn2C(=O)c2ccoc2)cc1` [Cmpd 338] showed a half-maximal inhibitory concentration (IC50) of 10 to 100 µM.

On to `COc1ccc(CNc2nc(-c3cccnc3)nn2C(=O)c2ccoc2)cc1` [Cmpd 339], for which the IC50 is greater than 100 µM.

For the molecule `CCC(=O)n1nc(-c2cccnc2)nc1NCc1cccs1` [Cmpd 340], the IC50 is 10 to 100 µM.

In the case of `COc1ccccc1C(=O)n1nc(C2CCN(C(=O)C(C)(C)C)CC2)nc1NCc1ccc(Cl)s1` [Cmpd 341], the concentration for half-maximal inhibition (IC50) is 0.1 to 1 µM.

For the molecule `CC(C)(C)C(=O)n1nc(-c2ccco2)nc1NCc1ccccc1` [Cmpd 342], the IC50 is greater than 100 µM.

`O=C(Cc1ccccc1)n1nc(-c2ccco2)nc1NCc1ccccc1` [Cmpd 343]: the IC50 was greater than 100 µM.

With `CC(C)(C)C(=O)n1nc(-c2ccccn2)nc1NCc1ccccc1` [Cmpd 344], the half-maximal inhibitory concentration (IC50) fell in the range of 10 to 100 µM.

For the molecule `CC(C)C(=O)n1nc(-c2ccccn2)nc1NCc1ccccc1` [Cmpd 345], the IC50 was in the range of 10 to 100 µM.

For the molecule `CC(C)CC(=O)n1nc(-c2ccccn2)nc1NCc1ccccc1` [Cmpd 346], the half-maximal inhibitory concentration (IC50) lay in the range of 10 to 100 µM.

In the case of `CCCC(=O)n1nc(-c2ccccn2)nc1NCc1ccccc1` [Cmpd 347], the IC50 lay in the range of 10 to 100 µM.

`CCC(=O)n1nc(-c2ccccn2)nc1NCc1ccccc1` [Cmpd 348] yielded a half-maximal inhibitory concentration (IC50) of 10 to 100 µM.

In turn, `CCC(=O)n1nc(-c2cccnc2)nc1NCc1ccccc1` [Cmpd 349] came in with a half-inhibitory concentration (IC50) of 10 to 100 µM.

In turn, `CC(C)(C)C(=O)n1nc(-c2ccncc2)nc1NCc1ccccc1` [Cmpd 350] yielded an IC50 greater than 100 µM.

Consider `CC(C)C(=O)n1nc(-c2ccncc2)nc1NCc1ccccc1` [Cmpd 351], for which the half-inhibitory concentration (IC50) lay within 1 to 10 µM.

Molecule `O=C(Cc1ccccc1)n1nc(-c2ccncc2)nc1NCc1ccccc1` [Cmpd 352] displayed a 50% inhibitory concentration (IC50) greater than 100 µM.

Molecule `CC(C)CC(=O)n1nc(-c2ccncc2)nc1NCc1ccccc1` [Cmpd 353] yielded an IC50 greater than 100 µM.

In turn, `O=C(CCc1ccccc1)n1nc(-c2ccncc2)nc1NCc1ccccc1` [Cmpd 354] returned an IC50 greater than 100 µM.

`CCCC(=O)n1nc(-c2ccncc2)nc1NCc1ccccc1` [Cmpd 355] came in with an IC50 greater than 100 µM.

`CCC(=O)n1nc(-c2ccncc2)nc1NCc1ccccc1` [Cmpd 356] gave a 50% inhibitory concentration (IC50) greater than 100 µM.

The molecule `CC(C)(C)C(=O)n1nc(-c2cccs2)nc1NCc1ccccc1` [Cmpd 357] had an IC50 greater than 100 µM.

As for `O=C(c1ccccc1)n1nc(-c2cccnc2)nc1NCc1ccc(F)cc1` [Cmpd 359], the half-maximal inhibitory concentration (IC50) lay in the range of 0.1 to 1 µM.

Regarding `O=C(c1ccccc1)n1nc(-c2ccncc2)nc1NCc1ccccc1` [Cmpd 363], the concentration for half-maximal inhibition (IC50) was in the range of 0.1 to 1 µM.

Molecule `COc1ccccc1C(=O)n1nc(C2CN(S(=O)(=O)N(C)C)C2)nc1NCc1ccc(Cl)s1` [Cmpd 364] displayed an IC50 of less than 0.1 µM.

The molecule `O=C(c1cccnc1)n1nc(-c2cccnc2)nc1NCc1cccs1` [Cmpd 365] returned an IC50 of 1 to 10 µM.

On to `COc1ccccc1C(=O)n1nc(-c2ccccn2)nc1NCc1ccc(F)cc1` [Cmpd 367], for which the half-inhibitory concentration (IC50) was 1 to 10 µM.

As to `COc1ccccc1C(=O)n1nc(-c2cccnc2)nc1NCc1ccc(F)cc1` [Cmpd 368], the concentration for half-maximal inhibition (IC50) was in the range of 1 to 10 µM.

One may read the IC50 as the midpoint of a concentration-inhibition curve. A low value points to higher potency.
